Laboratory results taken from article PMC2844711 (The Journal of neuroscience : the official journal of the …, 2010).

Target: GluA4 (Rattus norvegicus, UniProt P19493, L505Y/L672V)
Assay: whole-cell patch clamp in tsA201 cells, agonist dose-response
Type: cell-based

GluA4, sequence (P19493 21-902 L505Y/L672V): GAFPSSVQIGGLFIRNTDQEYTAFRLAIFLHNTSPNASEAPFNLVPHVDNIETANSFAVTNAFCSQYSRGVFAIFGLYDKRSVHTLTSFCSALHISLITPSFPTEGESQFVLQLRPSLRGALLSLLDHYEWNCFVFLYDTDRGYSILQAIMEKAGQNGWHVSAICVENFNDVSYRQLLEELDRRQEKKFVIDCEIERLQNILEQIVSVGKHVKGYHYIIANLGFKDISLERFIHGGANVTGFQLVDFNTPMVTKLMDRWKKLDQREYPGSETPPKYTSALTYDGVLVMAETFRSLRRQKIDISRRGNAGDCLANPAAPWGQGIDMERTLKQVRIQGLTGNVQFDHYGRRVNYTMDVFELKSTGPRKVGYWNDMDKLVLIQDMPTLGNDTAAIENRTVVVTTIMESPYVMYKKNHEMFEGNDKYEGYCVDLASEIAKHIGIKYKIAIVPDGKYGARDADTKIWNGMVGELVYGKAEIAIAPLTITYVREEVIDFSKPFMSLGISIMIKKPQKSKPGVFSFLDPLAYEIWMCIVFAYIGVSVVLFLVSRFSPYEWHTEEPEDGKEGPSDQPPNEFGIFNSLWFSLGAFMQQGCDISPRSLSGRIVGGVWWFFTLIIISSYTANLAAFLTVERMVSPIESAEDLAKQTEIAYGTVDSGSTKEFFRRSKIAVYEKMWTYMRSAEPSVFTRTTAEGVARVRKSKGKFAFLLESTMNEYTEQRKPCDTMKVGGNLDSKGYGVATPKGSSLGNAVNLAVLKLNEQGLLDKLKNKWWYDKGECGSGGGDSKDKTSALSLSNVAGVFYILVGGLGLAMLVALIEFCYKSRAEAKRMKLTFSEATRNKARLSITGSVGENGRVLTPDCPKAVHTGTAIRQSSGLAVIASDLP

SMILES: C=C(C)[C@H]1CN[C@H](C(=O)O)[C@H]1CC(=O)O [KA, kainate]
- EC50: 324 ± 35 µM
